Laboratory results taken from publication PMC9896555, “Cyclic Acetals as Novel Long-Lasting Mosquito Repellents” (Journal of Agricultural and Food Chemistry, 2023).
Read-outs that look alike come from different tables or passages of the source.

Columns and labels:
Aedes albopictus [1] = assay: Effective dose / protection efficacy, human-bait technique; assay type: in vivo; settings: for pest or weed control at 0.081 µg/cm2, 0.081 µg/cm2 / pest or weed control at 0.17 µg/cm2, 0.17 µg/cm2 / pest or weed control at 0.33 µg/cm2, 0.33 µg/cm2 / pest or weed control at 0.5 µg/cm2, 0.5 µg/cm2 / pest or weed control at 0.83 µg/cm2, 0.83 µg/cm2 / pest or weed control at 1.7 µg/cm2, 1.7 µg/cm2 / pest or weed control at 8.3 µg/cm2, 8.3 µg/cm2 / pest or weed control at 16.7 µg/cm2, 16.7 µg/cm2 / pest or weed control at 83.3 µg/cm2, 83.3 µg/cm2: Aedes albopictus, topical, read-out: Protection efficacy PE%; for 100% PE: Table S1; for Protection efficacy (dose to obtain complete protection (100%) from bite attempts): applied on skin of volunteers, 3 min exposure
Description: The repellence of DEET, Icaridin (both supplied by Istituto Biochimico VEBI s.r.l.), acetals, and the synthesized hydroxyacetals was evaluated againstAedes albopictususing the human-bait technique (to simulate the condition of human skin on which repellents will be applied).[22]A. albopictuswas reared and tested at 26 ± 2 °C, ≥60 ± 10% relative humidity (RH), and at 14:10 h light/dark photoperiod, within Plexiglas cylindrical laboratory cages (35 cm diameter, 60 cm length) with one end closed by a net. During the tests, cages contained ≈150 nulliparous, 4–7 day-old, nonblood-fed females. For each compound to be tested, up to six volunteers participated in the trial.
The study was approved by the Regional Ethics Committee for Clinical Trials of Tuscany Region with the registered number 20383. Volunteers agreed to take part in the experiments following informed consent; only volunteers non-allergic to mosquito bites participated in the trials. On the day of the bioassay, they had no contact with lotions, perfumes, oils, or perfumed soaps. They wore latex surgical gloves, in which a dorsal square area of 30 cm^2 was cut open. Mosquito-exposed skin was treated with 50 μL of ethanol, as the negative hand control. The other hand was treated with 50 μL of the tested compounds in ethanol solution (dosages corresponding to 0.081, 0.17, 0.33, 0.5, 0.83, 1.7, 8.3, 16.7, and 83.3 μg/cm^2). Both hands were presented in the same test cage. The number of probing mosquitoes in a 3 min exposure period was recorded. During each test, the control and the treated hand were presented interchanged to verify the mosquitoes’ readiness to bite. Trials were considered valid only if at least 30 mosquitoes performed probing behavior on the control hand before each repellent dosage was tested. The protection efficacy (PE %) obtained from all replicates was calculated, according to the WHO guidelines[31] using this formula [drawing 1]
To evaluate the protection efficacy, volunteers applied increasing doses of the compounds to the skin on the back of their hands (30 cm^2, while the rest was covered with a rubber glove) and counted the number of mosquitoes attempting to bite; the solvent only was used on the control hand. The protection (percentage of repelled mosquitoes) was calculated as reported in the Material and Methods section.

Aedes albopictus [2] = assay: Protection time at 0.17 mg/cm2, human-bait technique; assay type: in vivo; settings: for pest or weed control at 0.17 mg/cm2, 0.17 mg/cm2: Aedes albopictus, topical, read-out: Protection time PE%; for Average PT >95% (% coefficient of variation) / Estimated 100% PT (complete protection time, mean±SE): at the dose of 0.17mg/cm2; for Estimated 100% PT (complete protection time, mean±SE): Kaplan–Meier estimate; for Protection time (95% protection): dose of 0.17 mg/cm^2, tests ended after 8 h
Description: To evaluate the protection time of derivatives, the PE % was measured with 100 μL of a 5% ethanol solution, corresponding to 0.17 mg/cm^2 of exposed skin, under the same laboratory conditions. Mosquito-exposed skin was treated with 100 μL of ethanol, as the negative hand control. For each volunteer (up to 8), the test was performed every hour, up to 8 h from the application. The protection time of DEET and Icaridin was measured under the same conditions. Since these trials were run in parallel with those aimed to profile the cytotoxicity of the compounds (paragraph 2.6), we interrupted the experiments for those compounds showing to have higher cytotoxicity than Icaridin and DEET as soon as the results were available. For this reason, the number of volunteers differs among the compounds.
The average time until protection which was higher than 95% protection time was considered for each compound. Moreover, for the compounds tested on at least three volunteers, the complete (100%) protection time was also estimated (SPSS 28.01.0) using the Kaplan–Meier survivor function procedure.[22]

Compound	pest or weed control at 0.081 µg/cm2, 0.081 µg/cm2 (Aedes albopictus [1]; 0.081 µg/cm2) [%]	pest or weed control at 0.17 µg/cm2, 0.17 µg/cm2 (Aedes albopictus [1]; 0.17 µg/cm2) [%]	pest or weed control at 0.33 µg/cm2, 0.33 µg/cm2 (Aedes albopictus [1]; 0.33 µg/cm2) [%]	pest or weed control at 0.5 µg/cm2, 0.5 µg/cm2 (Aedes albopictus [1]; 0.5 µg/cm2) [%]	pest or weed control at 0.83 µg/cm2, 0.83 µg/cm2 (Aedes albopictus [1]; 0.83 µg/cm2) [%]	pest or weed control at 1.7 µg/cm2, 1.7 µg/cm2 (Aedes albopictus [1]; 1.7 µg/cm2) [%]	pest or weed control at 8.3 µg/cm2, 8.3 µg/cm2 (Aedes albopictus [1]; 8.3 µg/cm2) [%]	pest or weed control at 16.7 µg/cm2, 16.7 µg/cm2 (Aedes albopictus [1]; 16.7 µg/cm2) [%]	pest or weed control at 83.3 µg/cm2, 83.3 µg/cm2 (Aedes albopictus [1]; 83.3 µg/cm2) [%]	100% PE (Aedes albopictus [1]) [µg/cm2]	Protection efficacy (dose to obtain complete protection (100%) from bite attempts) (Aedes albopictus [1]) [μg/cm^2]	pest or weed control at 0.17 mg/cm2, 0.17 mg/cm2 (Aedes albopictus [2]; 0.17mg/cm2, 1 h) [%]	pest or weed control at 0.17 mg/cm2, 0.17 mg/cm2 (Aedes albopictus [2]; 0.17mg/cm2, 2 h) [%]	pest or weed control at 0.17 mg/cm2, 0.17 mg/cm2 (Aedes albopictus [2]; 0.17mg/cm2, 3 h) [%]	pest or weed control at 0.17 mg/cm2, 0.17 mg/cm2 (Aedes albopictus [2]; 0.17mg/cm2, 4 h) [%]	pest or weed control at 0.17 mg/cm2, 0.17 mg/cm2 (Aedes albopictus [2]; 0.17mg/cm2, 5 h) [%]	pest or weed control at 0.17 mg/cm2, 0.17 mg/cm2 (Aedes albopictus [2]; 0.17mg/cm2, 6 h) [%]	Average PT >95% (% coefficient of variation) (Aedes albopictus [2])	Estimated 100% PT (complete protection time, mean±SE) (Aedes albopictus [2]) [min]	Protection time (95% protection) (Aedes albopictus [2]) [h]	further results
CCCCC1(CCCC)OCC(C)(CO)CO1 [16b]	0	40.6	31.2	68.4	94.7	100	100	100	100	1.7	1.7	98.6	97.5	99.5	96.3	95.1	93.7	420 (8.0) min	180 ± 64	7	pest or weed control at 0.17 mg/cm2, 0.17 mg/cm2 (Aedes albopictus [2]; 0.17mg/cm2, 7 h): 96.2%; pest or weed control at 0.17 mg/cm2, 0.17 mg/cm2 (Aedes albopictus [2]; 0.17mg/cm2, 8 h): 94.6%
CCCCCCCCCC1(C)OCC(CO)O1 (stereo not shown) [22a]	2.83	32.6	50	37.5	65.4	94.2	100	100	100		8.3	100	100	98.9	98.2	95.2	99.5	420 (3.5) min	380 ± 105	7	pest or weed control at 0.17 mg/cm2, 0.17 mg/cm2 (Aedes albopictus [2]; 0.17mg/cm2, 7 h): 96.6%; pest or weed control at 0.17 mg/cm2, 0.17 mg/cm2 (Aedes albopictus [2]; 0.17mg/cm2, 8 h): 90%
CCCCCCCC1(C)OCC(CO)O1 (stereo not shown) [15a]	7.74	35.8	45.9	54.7	62.2	89.4	98.8	100	100	16.7	16.7	100	99.6	100	100	97.7	98.5	480 (6.0) min	380 ± 61	8	pest or weed control at 0.17 mg/cm2, 0.17 mg/cm2 (Aedes albopictus [2]; 0.17mg/cm2, 7 h): 97.5%; pest or weed control at 0.17 mg/cm2, 0.17 mg/cm2 (Aedes albopictus [2]; 0.17mg/cm2, 8 h): 96.7%
CCCCCCCC1OCC(CO)O1 (mixture of isomers) [9a]										8.3	8.3							420 (4.5) min	307 ± 53	7	Protection efficacy PE% (Aedes albopictus [1]; 0.081 µg/cm2): 0%; Protection efficacy PE% (Aedes albopictus [1]; 0.17 µg/cm2): 33.33%; Protection efficacy PE% (Aedes albopictus [1]; 0.33 µg/cm2): 72.85%; Protection efficacy PE% (Aedes albopictus [1]; 0.5 µg/cm2): 74.69%; Protection efficacy PE% (Aedes albopictus [1]; 0.83 µg/cm2): 82.72%; Protection efficacy PE% (Aedes albopictus [1]; 1.7 µg/cm2): 90.12%; Protection efficacy PE% (Aedes albopictus [1]; 8.3 µg/cm2): 100%; Protection efficacy PE% (Aedes albopictus [1]; 16.7 µg/cm2): 100%; Protection efficacy PE% (Aedes albopictus [1]; 83.3 µg/cm2): 100%; Protection time PE% (Aedes albopictus [2]; 0.17mg/cm2, 0 min): 100%; Protection time PE% (Aedes albopictus [2]; 0.17mg/cm2, 1 h): 99.77%; Protection time PE% (Aedes albopictus [2]; 0.17mg/cm2, 2 h): 99.42%; Protection time PE% (Aedes albopictus [2]; 0.17mg/cm2, 3 h): 100%; Protection time PE% (Aedes albopictus [2]; 0.17mg/cm2, 4 h): 100%; Protection time PE% (Aedes albopictus [2]; 0.17mg/cm2, 5 h): 99.61%; Protection time PE% (Aedes albopictus [2]; 0.17mg/cm2, 6 h): 95.75%; Protection time PE% (Aedes albopictus [2]; 0.17mg/cm2, 7 h): 95.88%; Protection time PE% (Aedes albopictus [2]; 0.17mg/cm2, 8 h): 94.12%
CCN(CC)C(=O)c1cccc(C)c1 [DEET, N,N-diethyl-3-methylbenzamide, reference compound]	18.9	34.7	67.3	74.4	79.8	88.6	100	100	100	8.3	8.3	98	87.4	81.4	59.4			120 (1.4) min	120 ± 26	2	
CCCCCCCCCC1OCC(CO)O1 (mixture of isomers) [18a]											16.7							420 (2.1) min	190 ± 50		Protection efficacy PE% (Aedes albopictus [1]; 0.081 µg/cm2): 22.98%; Protection efficacy PE% (Aedes albopictus [1]; 0.17 µg/cm2): 41.74%; Protection efficacy PE% (Aedes albopictus [1]; 0.33 µg/cm2): 40.93%; Protection efficacy PE% (Aedes albopictus [1]; 0.5 µg/cm2): 77.98%; Protection efficacy PE% (Aedes albopictus [1]; 0.83 µg/cm2): 69.25%; Protection efficacy PE% (Aedes albopictus [1]; 1.7 µg/cm2): 87.67%; Protection efficacy PE% (Aedes albopictus [1]; 8.3 µg/cm2): 95.83%; Protection efficacy PE% (Aedes albopictus [1]; 16.7 µg/cm2): 100%; Protection efficacy PE% (Aedes albopictus [1]; 83.3 µg/cm2): 100%; Protection time PE% (Aedes albopictus [2]; 0.17mg/cm2, 0 min): 100%; Protection time PE% (Aedes albopictus [2]; 0.17mg/cm2, 1 h): 97.63%; Protection time PE% (Aedes albopictus [2]; 0.17mg/cm2, 2 h): 100%; Protection time PE% (Aedes albopictus [2]; 0.17mg/cm2, 3 h): 98.31%; Protection time PE% (Aedes albopictus [2]; 0.17mg/cm2, 4 h): 99.28%; Protection time PE% (Aedes albopictus [2]; 0.17mg/cm2, 5 h): 99.23%; Protection time PE% (Aedes albopictus [2]; 0.17mg/cm2, 6 h): 97.68%; Protection time PE% (Aedes albopictus [2]; 0.17mg/cm2, 7 h): 92.86%; Protection time PE% (Aedes albopictus [2]; 0.17mg/cm2, 8 h): 95.18%
